Measurements reported in the supplement of paper PMC7840683.
± gives the standard deviation of the averaged measurements.

Tested on: HepaRG
Assay: LDH release cytotoxicity, % of total lysis control; higher = more cytotoxic
Details: 48 h
Summary of the method: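 Percent cytotoxicity was scaled between on-plate vehicle and total lysis controls, then averaged over duplicate wells. The cells were single-lot HepaRG on collagen I-coated 96-well plates, exposed for 48 h to eight-point half-log test chemical series topping at 100 µM in serum-free induction medium with 0.5% DMSO. Total lysis wells got 0.1% Triton X, and LDH in 50 µL spent medium was read as resorufin fluorescence (CytoTox-ONE, Tecan Safire).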

| Compound | LDH release cytotoxicity (0.03162 µM) [%] | LDH release cytotoxicity (0.1 µM) [%] | LDH release cytotoxicity (0.3162278 µM) [%] | LDH release cytotoxicity (1 µM) [%] | LDH release cytotoxicity (3.16228 µM) [%] | LDH release cytotoxicity (10 µM) [%] | LDH release cytotoxicity (31.6228 µM) [%] | LDH release cytotoxicity (100 µM) [%] | LDH release cytotoxicity (0.0317809 µM) [%] | LDH release cytotoxicity (0.1005 µM) [%] | LDH release cytotoxicity (0.317809 µM) [%] | LDH release cytotoxicity (1.005 µM) [%] | LDH release cytotoxicity (3.17809 µM) [%] | LDH release cytotoxicity (10.05 µM) [%] | LDH release cytotoxicity (31.7809 µM) [%] | LDH release cytotoxicity (100.5 µM) [%] |
| --- | --- | --- | --- | --- | --- | --- | --- | --- | --- | --- | --- | --- | --- | --- | --- | --- |
| CC(C)OC(=O)C(C)(C)Oc1ccc(C(=O)c2ccc(Cl)cc2)cc1 [Fenofibrate] | -0.938 ± 0.65 | -0.368 ± 1.6 | -0.7726 ± 0.0031 | -1.53 ± 0.59 | -0.41 ± 0.067 | -0.735 ± 0.21 | -0.291 ± 0.23 | 0.118 ± 0.2 |  |  |  |  |  |  |  |  |
| CCOC(=O)C(C)Oc1ccc(Oc2nc3ccc(Cl)cc3o2)cc1 (centres undefined) [Fenoxaprop-ethyl] | -2.02 ± 0.53 | -2.51 ± 0.57 | -2.8 ± 0.91 | -2.59 ± 1 | -2.21 ± 0.26 | -2.46 ± 0.87 | -1.44 ± 0.15 | -1.21 ± 0.54 |  |  |  |  |  |  |  |  |
| CCOC(=O)NCCOc1ccc(Oc2ccccc2)cc1 [Fenoxycarb] | -2.3 ± 0.29 | -2.15 ± 0.69 | -2.2 ± 0.96 | -2.52 ± 0.77 | -2.33 ± 0.49 | -1.4 ± 0.053 | -2.64 ± 0.77 | 16.6 ± 5.7 |  |  |  |  |  |  |  |  |
| CC1(C)C(C(=O)OC(C#N)c2cccc(Oc3ccccc3)c2)C1(C)C (centres undefined) [Fenpropathrin] | -1.16 ± 1 | -1.28 ± 0.23 | 0.259 ± 0.35 | -1.32 ± 0.98 | -1.08 ± 0.83 | -0.114 ± 0.023 | 0.399 ± 0.42 | 1.44 ± 0.57 |  |  |  |  |  |  |  |  |
| Cc1nn(C)c(Oc2ccccc2)c1C=NOCc1ccc(C(=O)OC(C)(C)C)cc1 [Fenpyroximate (Z,E)] | -1.39 ± 1.1 | -1.596 ± 0.013 | -2.4 ± 0.59 | -2.65 ± 0.51 | 11 ± 1.3 | 17.19 ± 0.12 | 20.7 ± 1.8 | 30.9 ± 2.2 |  |  |  |  |  |  |  |  |
| COP(=S)(OC)Oc1ccc(SC)c(C)c1 [Fenthion] | -0.428 ± 0.68 | -0.733 ± 0.38 | -0.879 ± 0.25 | -0.217 ± 1 | -0.561 ± 0.56 | 0.173 ± 0.094 | 0.52 ± 0.028 | 2.37 ± 0.83 |  |  |  |  |  |  |  |  |
| N#Cc1nn(-c2c(Cl)cc(C(F)(F)F)cc2Cl)c(N)c1S(=O)C(F)(F)F (centres undefined) [Fipronil] |  |  |  |  |  |  |  |  | -1.15 ± 1.5 | -0.938 ± 0.22 | -1.37 ± 0.65 | -2.05 ± 0.55 | -1.97 ± 1.1 | -1.68 ± 0.5 | 19.3 ± 1.7 | 59.8 ± 2 |
| CCCCOC(=O)C(C)Oc1ccc(Oc2ccc(C(F)(F)F)cn2)cc1 (centres undefined) [Fluazifop-P-butyl] |  |  |  |  |  |  |  |  | -1.34 ± 1.1 | -0.704 ± 2.2 | -1.02 ± 2.1 | -0.805 ± 2.7 | -1.3 ± 1.6 | -0.416 ± 3.4 | 0.0852 ± 1.8 | -0.23 ± 1.1 |
| CCCCOC(=O)C(C)Oc1ccc(Oc2ccc(C(F)(F)F)cn2)cc1 (centres undefined) [Fluazifop-butyl] | -0.307 ± 2.5 | -0.771 ± 1.4 | -0.631 ± 0.81 | -0.375 ± 0.17 | -0.996 ± 0.14 | 0.207 ± 1.2 | 0.479 ± 1.7 | 1.84 ± 2.7 |  |  |  |  |  |  |  |  |
| O=[N+]([O-])c1cc(C(F)(F)F)c(Cl)c([N+](=O)[O-])c1Nc1ncc(C(F)(F)F)cc1Cl [Fluazinam] | -1.32 ± 0.49 | -1.4 ± 0.42 | -1.08 ± 0.19 | -1.53 ± 1 | -1.12 ± 0.27 | 0.179 ± 0.78 | 9.87 ± 2.4 | 55.8 ± 2.7 |  |  |  |  |  |  |  |  |
| OC(Cn1cncn1)(Cn1cncn1)c1ccc(F)cc1F [Fluconazole] | -1.56 ± 0.43 | -0.0671 ± 1.1 | 0.556 ± 0.68 | -0.472 ± 0.33 | 0.965 ± 0.97 | 0.138 ± 0.29 | 0.241 ± 0.57 | 0.712 ± 0.97 |  |  |  |  |  |  |  |  |
| N#Cc1c[nH]cc1-c1cccc2c1OC(F)(F)O2 [Fludioxonil] | -1.45 ± 1 | -1.69 ± 0.5 | -1.72 ± 0.45 | -1.04 ± 0.23 | 0.437 ± 0.076 | 0.919 ± 0.9 | 3.74 ± 0.92 | 9.41 ± 1.2 |  |  |  |  |  |  |  |  |
| CC(C)N(C(=O)COc1nnc(C(F)(F)F)s1)c1ccc(F)cc1 [Flufenacet] | -2.32 ± 1.1 | -2.03 ± 0.074 | -2.3 ± 0.27 | -2.01 ± 0.82 | -2.29 ± 0.33 | -1.38 ± 0.041 | 0.458 ± 1.1 | 1.71 ± 0.18 |  |  |  |  |  |  |  |  |
| CCOC(=O)COc1cc(-n2ncc(C(F)(F)F)c(C)c2=O)c(F)cc1Cl [Flufenpyr-ethyl] | -1.89 ± 1.7 | -1.45 ± 0.22 | -1.14 ± 0.024 | -1.34 ± 0.57 | -1.22 ± 0.67 | -0.592 ± 0.22 | -0.509 ± 1.1 | 0.726 ± 0.9 |  |  |  |  |  |  |  |  |
| CCN(Cc1c(F)cccc1Cl)c1c([N+](=O)[O-])cc(C(F)(F)F)cc1[N+](=O)[O-] [Flumetralin] | -0.56 ± 1.7 | -0.903 ± 0.34 | -1.29 ± 0.66 | -1.01 ± 0.52 | -0.0868 ± 0.54 | -0.582 ± 0.92 | -0.2 ± 0.43 | 5.506 ± 0.052 |  |  |  |  |  |  |  |  |
| Cc1ccn2nc(S(=O)(=O)Nc3c(F)cccc3F)nc2n1 [Flumetsulam] | -2 ± 0.6 | -0.7 ± 1.5 | -1.43 ± 3 | -1.43 ± 1.5 | -1.84 ± 0.62 | 0.538 ± 0.94 | 0.194 ± 2 | 1.86 ± 1.8 |  |  |  |  |  |  |  |  |
| CCCCCOC(=O)COc1cc(N2C(=O)C3=C(CCCC3)C2=O)c(F)cc1Cl [Flumiclorac-pentyl] | -1.94 ± 0.45 | -1.12 ± 1.1 | -0.329 ± 0.33 | -1.17 ± 0.56 | -0.793 ± 0.22 | -0.278 ± 0.39 | -1.05 ± 0.035 | 0.436 ± 0.073 |  |  |  |  |  |  |  |  |
| C#CCN1C(=O)COc2cc(F)c(N3C(=O)C4=C(CCCC4)C3=O)cc21 [Flumioxazin] | -0.355 ± 0.95 | -0.895 ± 0.2 | -0.721 ± 1.1 | -1.33 ± 0.85 | -0.964 ± 0.086 | -1.1 ± 0.023 | -0.837 ± 0.11 | 0.763 ± 0.79 |  |  |  |  |  |  |  |  |
